The source of these data is patent publication US20050163773A1, “Methods and pharmaceutical compositions for dopaminergic modulation of t-cell adhesion and activity” (priority 2001, published 2005).

Assay [1] relates to resting human peripheral T-cells. Kind of assay: Gene expression, Atlas human cDNA expression array. In kind it is cell-based. The note with it: DPAT 10 nM, 24 hours. How it is done:
Poly A+RNA was extracted from human T-lymphocytes before and after treatment with 10 nM DPAT for 24 hours, using the Atlas Pure Total RNA Labeling System (Clontech Laboratories, Inc. Palo Alto, Calif.) according to manufacturers recommendations. […] Hybridizations to the Atlas Human cDNA Expression Arrays membranes (Catalog No. 1.2 KIII (7850-1) and III (7855-1), Clontech Laboratories) were performed by Clonetech Laboratories, as described in the user manual, and the expression pattern of up and down regulated genes was visualized by autoradiography.
Poly A+ RNA was prepared from both DPAT- treated and untreated cells and reverse transcribed to ^32P-labeled cDNA. Using an Atlas human cDNA expression array (i.e. a positively charged nylon membrane spotted with 1200 different human cDNAs) for identification of effected genes, the reverse transcribed products were characterized by hybridization to the atlas membranes. The differential pattern of expression between untreated cells and DPAT-treated cells was visualized by autoradiography, and quantified by densitometry. (FIGS. 20A and 20B). […] This member of the ovalbumin family of serine protease inhibitors is expressed at elevated levels in patients with acute myeloid leukemia and chronic myelomonocytic leukemia, inhibits TNF alpha-induced cell death, and has been linked to the regulation of protease activities in early hematopoiesis (Riewald, M et al Blood 1998;91:1256-62 and Schleef R R and Chuang T L J Biol Chem 2000;275:26385-9).

Assay [2] concerns normal human T-cells. The experiment in a line: Membrane potential measurement by flow cytometry, human T-cells. Conditions: DPAT 10^−8 M. In kind it is cell-based. The method, then:
(§1) Membrane potential measurements by flow cytometry: Purified normal human or mouse antigen-specific T-cells were incubated in serum-free medium (RPMI, ˜1×10^6/ml, 1 hr, 37° C., 10% CO2 humidified incubator) to assure steady state conditions. The cells were then washed, resuspended in normal RPMI, distributed into individual tubes (˜1×10^6/tube), added with 300 nM di-BA-C4(3) oxanol dye (Molecular Probes, Inc., Eugene, Oreg., USA), and 5-15 minutes later added with DPAT (10^−8 M). Alternatively, the human T-cells were resuspended either in normal RPMI, or in rich K^+ RPMI solutions, incubated for 30 min (37° C., 10% CO2), and loaded with 300 nM di-BA-C4(3) oxanol dye. The cell fluorescence was analyzed on the FACSORT at 488 nm.
A general note: Flow cytometry measures light scatter and fluorescence of single cells or particles in a stream.

The test system of assay [3] is Bomapin (protease inhibitor 10, PI 10). Kind of assay: RT-PCR analysis of Bomapin mRNA in peripheral T-cells. Type of assay: cell-based, human. Conditions: DPAT 10 nM; not shown.
Assay [4] concerns normal human T-cells. The experiment in a line: T-cell adhesion assay (adhesion of human T-cells to fibronectin).
Description: T-cell adhesion assay: In the majority of the experiments, adhesion of purified normal human T-cells to fibronectin was assayed with radioactively labeled T-cells as follows: normal human T-cells, purified from a fresh blood sample, were labeled with Na2[^51CrO4], washed, and resuspended in adhesion medium (RPMI-1640 supplemented with 2% BSA, 1 mM Ca^++, 1 mM Mg^++, 1% sodium pyruvate, 1% glucose, and 1% HEPES buffer). The cells were then pre-treated (30 min., 37° C.) with DPAT, and added to fibronectin coated (1 μg/well; Sigma Chemicals, St. Louis, Mo.) microtiter flat-bottomed 96 well plates (1×10^5 cells/100 μl/well). The plates were placed in a humidified incubator (37° C., 30 min., 10% CO2), and than washed thoroughly several times with PBS, to remove non-adherent T-cells. The adherent T-cells were lysed with 1% Tween 20 in 1N NaOH, and the radioactivity in the resulting supernatants was determined in a γ-counter. For each experimental group, results were expressed as the mean CPM±SD of bound T-cells from quadruplicate wells. DPAT-treated T-cell adhesion to BSA-(rather than fibronectin) coated wells, and untreated T-cell adhesion to fibronectin coated wells, were the standard negative controls.
Non-radioactive T-cell adhesion assays: Alternatively, T-cell adhesion assays were performed with non-radioactively labeled cells, differing from the above protocol only in the final detection steps which were performed as follows: After the final washing of the adhesion plates and removal of the non adherent cells, the microtiter wells were supplemented with lysis and substrate solution (60 μl/well of: 0.5% Triton X-100 in water mixed with an equal volume of 7.5 mM p-nitrophenol-N-acetyl-β-D-glucosaminide, (Sigma Chemicals, St. Louis, Mo.) in 0.1M citrate buffer pH=5.0). The plates were then incubated (˜18hr) in a CO2-free 37° C. incubator, supplemented with stop solution (90 μl/well of 50 mM glycine, (Sigma Chemicals, St. Louis, Mo.) pH=10.4 containing 5 mM EDTA), and the optical density was measured at 405 nm in a standard Elisa reader.
For assay [5], the system named is oxazalone-sensitized T-cells. Kind of assay: Passively transferred delayed type hypersensitivity (DTH) with T-cells treated ex vivo. In kind it is in vivo, mouse. The method, then:
Lymph nodes were removed from oxazalone-sensitized mice, and the T-cell suspension was exposed ex-vivo to increasing concentrations of DPAT (FIG. 9A, DPAT […]-DPAT 10^−6M) as described for FIG. 8 hereinabove. Control T-cells were incubated with medium only (untreated T-cells). The T-cells were then washed, resuspended in PBS and injected intravenously into naive syngeneic mice. The ears of the recipient mice were than challenged with oxazalone, and the degree of ear swelling was measured by micrometer 24 hr later. DTH is expressed as the mean ±SD of ear swelling in units of 10^−2 mm. […] Oxazalone-sensitized T-cells were incubated ex vivo for one hour with either DPAT (10^−8 M, +DPAT) or U-Mal (10^−7 M, +U-Mal), or both. The T-cells were then washed, resuspended in PBS, injected intravenously into normal recipients, and DTH measured as described hereinabove. […] FIGS. 9A and 9B represent two individual experiments, each experimental group consisting of 8 mice.
Passively transferred delayed type hypersenisitivity (DTH): Groups of 6-8 BALB/c female mice (The Jackson Laboratory, Bar Harbor, Mass., USA) were sensitized on the abdominal skin with 200 μt of 2% oxazalone dissolved in acetone/olive oil [4:1 vol/vol)] applied topically. Five days later, lymph nodes were removed from the sensitized mice, and a cell suspension prepared. The cells (3-5×10^6/ml in RPMI, no additional supplements) were than added for […] incubation ([…]. 37° C., 10% CO2 humidified incubator) with either DPAT, U-Mal, or both (in the latter combination the antagonist added 5 minutes before the agonist). The cells were than washed, resuspended in PBS, and injected IV (40×10^6 /mouse) into normal BALB/c recipients. Immediately afterwards the recipient mice were […] with 10 μl of 2% oxazalone in acetone/olive oil, applied topically to each side of the ear. A constant area of the ear was measured immediately before challenge and 24 hr after the challenge with a Mitutoyo engineer's micrometer. The individual measuring the ear swelling was unaware of the identity of the mice groups. The DTH reaction is expressed as the mean±SD (for each group) of the increment of ear swelling 24 hours after inoculation of the oxazalone-sensitized T-cells, in units of 10^−2 mm.

The test system of assay [6] is IL-10 secretion. Kind of assay: IL-10 secretion by human peripheral T-cells (sandwich ELISA). Type of assay: cell-based. Conditions: agonist 10^−7 M, 72 hours.
Description: The results are expressed as pg/ml IL-10. […] Immunostaining is with intracellular anti-IL-10 FITC conjugated (FL-1) and anti-CD4 PE conjugated (FL-2) antibodies, as described in Materials and Methods hereinbelow.
The results are expressed as pg/mi.
(§2) The results are expressed as pg/ml.
as §2, §2

The test system of assay [7] is mouse antigen-specific (MBP87-99) T-cells. The experiment in a line: Membrane potential measurement by flow cytometry, mouse antigen-specific T-cells. In kind it is cell-based. Conditions: DPAT 10^−8 M; di-BA-C4(3) oxanol dye. The method, then: as §1
The test system of assay [8] is SJL/J anti PLP 139-151 T-cells. Kind of assay: Experimental autoimmune encephalomyelitis (EAE) induced by encephalitogenic T-cells treated ex vivo. Type of assay: in vivo, mouse.
For assay [9], the system named is normal human T-cells. Kind of assay: Proliferation of resting normal human T-cells (CyQuant). Type of assay: cell-based. The note with it: 48 hours. How it is done: FIGS. 18A-C depict the proliferation of resting normal human and cultured Jurkat T-cells induced by physiological concentrations of DPAT. […] Numbers of T-cells were evaluated using the CyQuant cell proliferation assay kit (Molecular Probes), according to the manufacturer instructions. FIG. 18A represents a calibration of the CyQuant cell kit, showing the linear relationship between the fluorescent intensity and untreated human T-cell number. Note the similar maximal enhancement of T-cell proliferation with 10^−10M DPAT in purified normal human (18B) and cultured Jurkat T-cells (FIG. 18C).

Several values for one entry are separate records, joined by “and”; a condition that tells them apart may be missing. Equal values may be shown once.

For the compound `CCCN(CCC)C1CCc2ccc(O)cc2C1` (stereo not drawn) [DPAT, 7-Hydroxy-DPAT], in assay [1], the “down-regulation of gene expression” value is “down-regulated the expression of others”; the “expression of Lupus LA protein and Cathepsin E precursor” value is “induced expression of Lupus LA protein and Cathepsin E precursor”; the “expression of the serine protease inhibitor Bomapin” value is given as “induction of expression”; the “over expression of mRNA (upregulated genes)” value is “induced the over expression of mRNA encoding for several genes”. Also, the “level of depolarization, comparable extracellular K^+ concentration” value in assay [2] is listed as around 20 mM. Also, the “depolarization of normal human T-cells” value in assay [2] (di-BA-C4(3) oxanol dye) is reported as “clear depolarization”. Besides, the “shift of membrane potential” value in assay [2] (from a resting potential of ˜48 mV) is around 6 mV. Besides, the “abundance of Bomapin transcripts” value in [3] was “increased abundance of Bomapin transcripts”. Besides, in [4] (DPAT 10 nM, BSA- instead of fibronectin-coated wells (negative control)), the “DPAT-treated T-cell adhesion to BSA-coated wells” value is below 6%. The “adhesion when T-cells or fibronectin-coated wells were transiently exposed to DPAT” value in assay [4] (DPAT 10^−8 M, washed before seeding) is on record as “significant adhesion of T-cells to fibronectin was evident only if the T-cells”. In addition, in [4] (dose dependence, human T-cells), the “optimum concentration for induction of T-cell adhesion to fibronectin” value was found to be 10 nM. The “DTH (ear swelling) caused by oxazalone-sensitized T-cells” value in assay [5] (DPAT 10^−8 M ex vivo, 1 hr, ear swelling 24 hr after challenge) was “significantly reduced”. Moreover, in assay [5] (DPAT concentrations other than 10^−8 M), the “DTH suppression at higher and lower concentrations” value was “either less or not at all effective”. Besides, in assay [5] (DPAT ex vivo, ear swelling 24 hr after challenge), the “reduction of DTH” value is recorded as above 60%. Besides, in assay [6], the “induction of IL-10 secretion by receptor-specific Dopamine agonists” value was “induced by the D2 and D3”. Also, the “depolarization of mouse antigen specific T-cells” value in assay [7] was “clear depolarization”. The “severity of EAE in recipient mice” value in [8] (T-cells incubated 1 hour with DPAT 10^−8 M ex vivo, IV into naive SJL/J mice, documented 5-12 days later) was “significantly reduced the severity”. The “percentage of mice developing EAE, individual experiments” value in [8] (mice injected with DPAT-treated T-cells, four independent experiments) is 83% and 60% (2×) and 80%. Besides, the “percentage of mice developing EAE, mean of four experiments” value in [8] (mice injected with DPAT-treated T-cells, p<0.01 vs untreated T-cells) came to 70%. Further, the “DPAT concentration of maximal enhancement of proliferation, normal human T-cells” value in assay [9] is 10^−10 M. Also, the “proliferation of normal human T-cells relative to untreated cells” value in assay [9] (DPAT 10^−8 M to 10^−10 M) is “up to 5 times that of untreated cells”.
